Results taken from US20210261553A1, “FUSED TETRAZOLES AS LRRK2 INHIBITORS” (E-SCAPE Bio, Inc., priority 2018, published 2021).

Legend:
[1] = target: T1, Recombinant G2019S-LRRK2 protein (Homo sapiens, UniProt Q5S007, G2019S); assay: LRRK2 kinase activity assay (LanthaScreen TR-FRET), G2019S mutant; type: biochemical; conditions: 400 nM LRRKtide, 25 μM ATP, 60 min at room temperature
T1 construct: purchased Life Technologies PV4881
Description: (§1) LRRK2 kinase activity was measured using a LanthaScreen™ Kinase Activity Assay from ThermoFisher Scientific. Recombinant wild type or G2019S-LRRK2 protein (Life Technologies, PR8604B or PV4881, respectively), was incubated with a fluorescein-labeled peptide substrate called LRRKtide that is based upon ezrin/radixin/moesin (ERM) (Life Technologies, PV4901) in the presence of ATP and serially diluted compound. After an incubation period of 1 hr, the phosphotransferase activity was stopped and a terbium-labelled anti-pERM antibody (Life Technologies, PV4899) was added to detect the phosphorylation of LRRKtide by measuring the time resolved-Forster resonant energy transfer (TR-FRET) signal from the terbium label on the antibody to the fluorescein tag on LRRKtide, expressed as the 520 nm/495 nm emission ratio. Compound-dependent inhibition of the TR-FRET signal was used to generate a concentration-response curve for IC50 determination.
(§2) The assay was carried out under the following protocol conditions: 1 mM compound in DMSO was serially diluted 1:3, 11 points in DMSO with a Biomek FX and 0.1 μL of the diluted compound was subsequently stamped into the assay plate (384-well format Lumitrac 200, Greiner, 781075) with an Echo Labcyte such that the final compound concentration in the assay was 10 μM to […]. Subsequently, 5 μL of 2× kinase solution (2.9 nM final concentration) was added to the assay plate in assay buffer composed of 50 mM Tris pH 8.5 (Sigma, T6791), 5 mM MgCl2 (Fluka, 63020), 1 mM EGTA (Sigma, E3889), 0.01% BRU-35 (Sigma, P1254) and 2 mM DTT. The reaction was started by addition of 2×ATP/LRRKtide solution in assay buffer such that the final concentration was 400 nM LRRKtide and 25 μM ATP. After 60 min incubation at room temperature, the reaction was stopped by addition of […] containing a final concentration of 2 nM anti-pERM antibody and […]. After a 30 min incubation at RT, the TR-FRET signal was measured on a Wallac 2104 EnVision® multilabel reader at an excitation wavelength of 340 nm and reading emission at 520 nm and 495 nm. The ratio of the 520 nm and 495 nm emission was used to analyze the data.

[2] = target: T2, Recombinant wild type LRRK2 protein (Homo sapiens, UniProt Q5S007); assay: LRRK2 kinase activity assay (LanthaScreen TR-FRET), wild type; type: biochemical; conditions: 400 nM LRRKtide, 25 μM ATP, 60 min at room temperature; read-out: LRRK2 WT IC50
T2 construct: purchased Life Technologies PR8604B
Description: as §1, §2

T2 sequence (Q5S007 whole entry): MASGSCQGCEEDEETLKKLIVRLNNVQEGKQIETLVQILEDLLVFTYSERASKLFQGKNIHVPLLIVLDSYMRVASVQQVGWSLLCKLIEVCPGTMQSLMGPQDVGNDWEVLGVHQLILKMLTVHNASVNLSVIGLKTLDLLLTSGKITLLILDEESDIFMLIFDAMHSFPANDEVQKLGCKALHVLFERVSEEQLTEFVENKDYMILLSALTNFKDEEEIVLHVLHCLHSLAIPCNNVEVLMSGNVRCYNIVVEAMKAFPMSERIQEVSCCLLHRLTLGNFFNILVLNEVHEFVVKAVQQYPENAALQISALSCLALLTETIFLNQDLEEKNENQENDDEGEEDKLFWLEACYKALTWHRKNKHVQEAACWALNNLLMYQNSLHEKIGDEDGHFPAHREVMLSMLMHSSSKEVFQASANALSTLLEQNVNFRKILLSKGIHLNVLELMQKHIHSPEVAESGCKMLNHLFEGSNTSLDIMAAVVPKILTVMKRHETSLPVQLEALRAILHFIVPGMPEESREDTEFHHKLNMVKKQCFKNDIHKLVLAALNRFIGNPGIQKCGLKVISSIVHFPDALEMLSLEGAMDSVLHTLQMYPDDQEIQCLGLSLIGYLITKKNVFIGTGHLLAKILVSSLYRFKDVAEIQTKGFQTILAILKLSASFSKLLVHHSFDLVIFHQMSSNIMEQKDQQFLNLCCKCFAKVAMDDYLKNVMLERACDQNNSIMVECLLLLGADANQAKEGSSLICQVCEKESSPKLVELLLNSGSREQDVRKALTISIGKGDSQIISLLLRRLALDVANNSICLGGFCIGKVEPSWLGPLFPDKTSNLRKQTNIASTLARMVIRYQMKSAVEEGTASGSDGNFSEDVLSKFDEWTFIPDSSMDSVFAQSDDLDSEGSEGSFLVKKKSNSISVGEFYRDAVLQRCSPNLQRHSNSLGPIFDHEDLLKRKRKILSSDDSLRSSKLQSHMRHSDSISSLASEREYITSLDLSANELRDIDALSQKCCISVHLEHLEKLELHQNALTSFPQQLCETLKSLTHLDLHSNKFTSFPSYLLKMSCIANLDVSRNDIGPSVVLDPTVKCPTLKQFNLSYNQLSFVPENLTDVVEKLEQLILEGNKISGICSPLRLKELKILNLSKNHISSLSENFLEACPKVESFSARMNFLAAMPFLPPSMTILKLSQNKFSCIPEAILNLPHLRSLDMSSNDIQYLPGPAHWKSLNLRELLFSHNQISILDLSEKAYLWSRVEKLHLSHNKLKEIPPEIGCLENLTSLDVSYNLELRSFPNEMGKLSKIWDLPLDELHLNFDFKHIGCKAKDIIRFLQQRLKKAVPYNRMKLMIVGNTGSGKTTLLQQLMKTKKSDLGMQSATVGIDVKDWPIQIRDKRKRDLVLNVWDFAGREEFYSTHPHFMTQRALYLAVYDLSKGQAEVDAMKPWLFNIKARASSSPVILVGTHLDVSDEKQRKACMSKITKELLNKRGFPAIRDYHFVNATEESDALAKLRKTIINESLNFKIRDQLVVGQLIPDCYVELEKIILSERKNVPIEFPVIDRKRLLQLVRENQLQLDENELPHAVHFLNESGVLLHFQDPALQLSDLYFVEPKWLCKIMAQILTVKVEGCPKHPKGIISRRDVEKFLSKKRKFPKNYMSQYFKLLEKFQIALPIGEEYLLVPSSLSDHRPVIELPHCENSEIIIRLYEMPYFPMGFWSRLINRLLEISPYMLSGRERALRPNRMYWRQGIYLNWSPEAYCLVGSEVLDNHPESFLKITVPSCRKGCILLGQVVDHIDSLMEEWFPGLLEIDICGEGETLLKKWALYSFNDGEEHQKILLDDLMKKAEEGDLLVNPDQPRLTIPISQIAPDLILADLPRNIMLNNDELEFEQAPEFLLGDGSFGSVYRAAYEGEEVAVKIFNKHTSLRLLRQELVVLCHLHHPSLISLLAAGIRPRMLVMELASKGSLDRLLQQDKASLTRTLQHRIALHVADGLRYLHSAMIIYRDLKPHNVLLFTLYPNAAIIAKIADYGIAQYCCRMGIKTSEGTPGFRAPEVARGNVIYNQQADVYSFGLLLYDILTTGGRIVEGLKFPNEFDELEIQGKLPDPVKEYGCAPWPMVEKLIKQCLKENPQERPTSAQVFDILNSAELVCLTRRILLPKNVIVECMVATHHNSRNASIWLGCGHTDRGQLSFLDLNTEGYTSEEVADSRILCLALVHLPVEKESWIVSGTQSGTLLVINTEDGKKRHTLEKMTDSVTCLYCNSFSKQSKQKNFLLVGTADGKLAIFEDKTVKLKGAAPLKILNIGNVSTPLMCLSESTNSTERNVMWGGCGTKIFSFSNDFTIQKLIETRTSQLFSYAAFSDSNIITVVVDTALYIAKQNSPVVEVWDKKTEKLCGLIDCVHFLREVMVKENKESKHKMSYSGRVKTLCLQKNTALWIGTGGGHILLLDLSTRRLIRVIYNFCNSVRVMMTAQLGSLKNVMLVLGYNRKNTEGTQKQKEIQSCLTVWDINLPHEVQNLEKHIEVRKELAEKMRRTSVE
T1 sequence (Q5S007 970-2527 G2019S limits assumed): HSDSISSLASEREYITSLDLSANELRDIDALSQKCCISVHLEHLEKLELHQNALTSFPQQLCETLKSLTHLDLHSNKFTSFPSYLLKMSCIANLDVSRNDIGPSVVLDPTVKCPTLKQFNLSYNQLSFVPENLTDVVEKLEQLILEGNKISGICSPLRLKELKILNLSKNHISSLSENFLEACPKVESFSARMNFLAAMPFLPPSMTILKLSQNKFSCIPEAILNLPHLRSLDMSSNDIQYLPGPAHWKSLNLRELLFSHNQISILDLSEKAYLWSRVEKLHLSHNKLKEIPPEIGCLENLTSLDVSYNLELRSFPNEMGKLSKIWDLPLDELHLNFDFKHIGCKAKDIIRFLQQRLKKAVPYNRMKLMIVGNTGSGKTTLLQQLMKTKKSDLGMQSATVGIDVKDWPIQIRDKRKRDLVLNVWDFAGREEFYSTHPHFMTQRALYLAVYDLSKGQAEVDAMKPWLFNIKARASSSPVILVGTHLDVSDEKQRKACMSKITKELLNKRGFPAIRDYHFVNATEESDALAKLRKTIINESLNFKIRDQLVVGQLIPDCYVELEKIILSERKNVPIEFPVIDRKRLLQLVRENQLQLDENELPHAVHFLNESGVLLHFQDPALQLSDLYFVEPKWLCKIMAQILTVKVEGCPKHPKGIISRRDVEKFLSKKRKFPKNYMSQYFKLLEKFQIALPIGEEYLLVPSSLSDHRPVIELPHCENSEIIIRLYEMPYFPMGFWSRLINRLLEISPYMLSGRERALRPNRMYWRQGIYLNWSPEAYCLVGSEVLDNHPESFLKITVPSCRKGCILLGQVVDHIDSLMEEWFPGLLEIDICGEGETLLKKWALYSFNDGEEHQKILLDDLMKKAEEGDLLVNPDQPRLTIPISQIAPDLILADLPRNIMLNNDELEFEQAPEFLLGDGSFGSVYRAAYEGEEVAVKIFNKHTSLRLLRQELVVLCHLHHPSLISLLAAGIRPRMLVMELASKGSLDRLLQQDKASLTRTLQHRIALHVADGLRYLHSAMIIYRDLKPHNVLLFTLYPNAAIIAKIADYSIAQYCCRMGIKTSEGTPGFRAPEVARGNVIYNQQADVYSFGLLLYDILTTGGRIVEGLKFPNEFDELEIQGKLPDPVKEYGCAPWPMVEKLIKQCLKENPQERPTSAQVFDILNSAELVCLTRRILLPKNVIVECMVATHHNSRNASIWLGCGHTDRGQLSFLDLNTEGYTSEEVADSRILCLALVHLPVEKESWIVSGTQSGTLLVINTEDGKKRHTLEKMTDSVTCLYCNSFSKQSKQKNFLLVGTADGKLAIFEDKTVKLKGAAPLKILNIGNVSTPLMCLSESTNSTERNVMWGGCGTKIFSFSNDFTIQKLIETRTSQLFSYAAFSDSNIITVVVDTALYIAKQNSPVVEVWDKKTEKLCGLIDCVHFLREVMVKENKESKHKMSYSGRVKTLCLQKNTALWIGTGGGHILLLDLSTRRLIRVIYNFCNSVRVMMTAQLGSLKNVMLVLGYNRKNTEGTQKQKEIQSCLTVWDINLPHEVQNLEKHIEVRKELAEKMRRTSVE

SMILES	IC50 [1] [nM]	IC50 [2] [nM]
CC1=C(C(=O)Nc2ccc3[nH]ncc3c2)Cn2nnnc2N1C(=O)N(C)C [Example 12, N^6-(1H-indazol-5-yl)-N^4,N^4,5-trimethyltetrazolo[1,5-a]pyrimidine-4,6(7H)-dicarboxamide]	≤ 100	100 to 1000
CCC1=C(C(=O)Nc2ccc3[nH]ncc3c2)Cn2nnnc2N1C [Example 5, 5-Ethyl-N-(1H-indazol-5-yl)-4-methyl-4H,7H-[1,2,3,4]tetrazolo[1,5-a]pyrimidine-6-carboxamide]	100 to 1000	100 to 1000
CC1=C(C(=O)Nc2ccc3[nH]c(=O)oc3c2)Cn2nnnc2N1C [Example 30, 4,5-dimethyl-N-(2-oxo-2,3-dihydrobenzo[d]oxazol-6-yl)-4,7-dihydrotetrazolo[1,5-a]pyrimidine-6-carboxamide]	1000 to 10000	> 10000
CC1=C(C(=O)Nc2ccc3[nH]nc(-c4ccnc(N5CCOCC5)c4)c3c2)Cn2nnnc2N1C [Example 7, 4,5-Dimethyl-N-(3-(2-morpholinopyridin-4-yl)-1H-indazol-5-yl)-4,7-dihydrotetrazolo[1,5-a]pyrimidine-6-carboxamide]	≤ 100	≤ 100
CCC1C(C(=O)Nc2ccc3[nH]ncc3c2)=C(C)N(C)c2nnnn21 (single isomer, unassigned) [Example 8b]	≤ 100	100 to 1000
CC1=C(C(=O)Nc2ccc3c(c2)C(C)(C)NC3=O)[C@@H](C)n2nnnc2N1C [Example 49, (R)—N-(3,3-Dimethyl-1-oxoisoindolin-5-yl)-4,5,7-trimethyl-4,7-dihydrotetrazolo[1,5-a]pyrimidine-6-carboxamide]	> 10000	> 10000

Further lines, results first:

IC50 [1] [nM]	IC50 [2] [nM]	SMILES
100 to 1000	1000 to 10000	CC1=C(C(=O)Nc2ccc3[nH]ncc3c2)C(C)n2nnnc2N1C (single isomer, unassigned) [Example 2b]
100 to 1000	100 to 1000	CC1=C(C(=O)Nc2cc3c[nH]nc3cc2F)Cn2nnnc2N1C [Example 19, N-(6-fluoro-2H-indazol-5-yl)-4,5-dimethyl-4,7-dihydrotetrazolo[1,5-a]pyrimidine-6-carboxamide]
1000 to 10000	1000 to 10000	CC1=C(C(=O)Nc2cc3c[nH]nc3cc2C(N)=O)Cn2nnnc2N1C [Example 20, N-(6-carbamoyl-2H-indazol-5-yl)-4,5-dimethyl-4,7-dihydrotetrazolo[1,5-a]pyrimidine-6-carboxamide]
1000 to 10000	1000 to 10000	CC1=C(C(=O)Nc2ccc3[nH]ncc3c2)Cn2nnnc2N1CCN1CCOCC1 [Example 4, N-(1H-Indazol-5-yl)-5-methyl-4-[2-(morpholin-4-yl)ethyl]-4H,7H-[1,2,3,4]tetrazolo[1,5-a]pyrimidine-6-carboxamide]
≤ 100	100 to 1000	CC1=C(C(=O)Nc2ccc3[nH]ncc3c2)C(C)n2nnnc2N1C (stereo not drawn) [Example 2, N-(1H-indazol-5-yl)-4,5,7-trimethyl-4H,7H-[1,2,3,4]tetrazolo[1,5-a]pyrimidine-6-carboxamide]
100 to 1000	1000 to 10000	CC1=C(C(=O)Nc2ccc3[nH]ncc3c2F)Cn2nnnc2N1C [Example 14, N-(4-fluoro-1H-indazol-5-yl)-4,5-dimethyl-4,7-dihydrotetrazolo[1,5-a]pyrimidine-6-carboxamide]
